# Laboratory results published in PMC3390202 (Biochemistry, 2011).
# Target: rhodopsin (N2C,D282C and N2C,E113Q,D282C mutants) (Bos taurus, UniProt P02699, N2C/E113Q/D282C)
# Experiment: UV-visible absorption
# Assay type: binding
# Settings: covalent; in the dark; inverse agonist chromophore; DDM, Hepes pH 7.5
structure (smiles),measurement,value
CC1=C(/C=C/C(C)=C/C=C\C(C)=C\C=O)C(C)(C)CCC1 [11-cis-retinal],UV-visible absorption; 1D4-Sepharose copurification with transducin,Binding of 11-cis-retinal forces the protein into the inactive state
